Experimental findings from PubChem BioAssay AID328 (DTP/NCI, 2004) are described below.

This experiment has as its system BDF1 mice, P388 leukemia ip, median survival T/C. Description: NCI In Vivo Anticancer Drug Screen. Data for tumor model P388 Leukemia (intraperitoneal) in B6D2F1 (BDF1) mice. As to conditions: endpoint: median survival time, higher = longer survival. Put shortly:
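Each value expresses how treatment altered survival: treated-mouse outcome over vehicle-mouse outcome, both groups bearing the transplanted tumour.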

Where [1] appears, read: dose: 100.0 mg/kg/injection, schedule: Q01DX009 (ip), vehicle: Klucel (hydroxypropylcellulose) (HPC).
The mark [2] stands for this setting: dose: 100.0 mg/kg/injection, schedule: Q04DX003 (ip), vehicle: Klucel (hydroxypropylcellulose) (HPC).
[3] abbreviates: dose: 200.0 mg/kg/injection, schedule: Q01DX009 (ip), vehicle: Klucel (hydroxypropylcellulose) (HPC).
The mark [4] stands for this setting: dose: 200.0 mg/kg/injection, schedule: Q04DX003 (ip), vehicle: Klucel (hydroxypropylcellulose) (HPC).
Setting [5] is: dose: 400.0 mg/kg/injection, schedule: Q04DX003 (ip), vehicle: Klucel (hydroxypropylcellulose) (HPC).
Where [6] appears, read: dose: 25.0 mg/kg/injection, schedule: Q01DX009 (ip), vehicle: Klucel (hydroxypropylcellulose) (HPC).
The mark [7] stands for this setting: dose: 50.0 mg/kg/injection, schedule: Q01DX009 (ip), vehicle: Klucel (hydroxypropylcellulose) (HPC).
The mark [8] stands for this setting: dose: 25.0 mg/kg/injection, schedule: Q01DX009 (ip), vehicle: saline.
Setting [9] is: dose: 75.0 mg/kg/injection, schedule: Q01DX009 (ip), vehicle: saline with Tween-80.
Setting [10] is: dose: 150.0 mg/kg/injection, schedule: Q01DX009 (ip), vehicle: saline with Tween-80.
Setting [11] is: dose: 100.0 mg/kg/injection, schedule: Q01DX009 (ip), vehicle: saline.
[12] abbreviates: dose: 100.0 mg/kg/injection, schedule: Q01DX001 (ip), vehicle: saline.
[13] abbreviates: dose: 200.0 mg/kg/injection, schedule: Q01DX001 (ip), vehicle: saline.
Setting [14] is: dose: 400.0 mg/kg/injection, schedule: Q01DX001 (ip), vehicle: saline.
[15] abbreviates: dose: 50.0 mg/kg/injection, schedule: Q01DX009 (ip), vehicle: saline with Tween-80.

Where “and” joins values, the source holds several entries; their conditions need not be identical. Identical values can stand only once. Inconclusive results and toxic doses are left out.

Turning to `CCOC(=O)C(C(=O)OCC)C1c2ccccc2C(=NO)c2ccccc21` (centres undefined), the T/C was 100 % of control under setting [1]; 112 % of control under setting [2]; 109 % of control under setting [3]; 104 % of control under setting [4]; 109 % of control (dose: 400.0 mg/kg/injection, schedule: Q01DX009 (ip), vehicle: Klucel (hydroxypropylcellulose) (HPC)); 91 % of control under setting [5].
For the compound `CC(C)C1OC(=O)C=C2C3(C)CC=CC4(C)C(=O)OC(C43)C3OC213` (centres undefined), the T/C (dose: 5.0 micrograms/kg/injection, schedule: Q01DX009 (ip), vehicle: saline + alcohol) is 109 % of control; the T/C (dose: 20.0 micrograms/kg/injection, schedule: Q01DX009 (ip), vehicle: saline + alcohol) is 100 % of control; the T/C (dose: 80.0 micrograms/kg/injection, schedule: Q01DX009 (ip), vehicle: saline + alcohol) was 90 % of control; the T/C (dose: 250.0 micrograms/kg/injection, schedule: Q01DX009 (ip), vehicle: saline + alcohol) is 109 % of control; the T/C (dose: 1000.0 micrograms/kg/injection, schedule: Q01DX009 (ip), vehicle: saline + alcohol) was 109 % of control; the T/C (dose: 4000.0 micrograms/kg/injection, schedule: Q01DX009 (ip), vehicle: saline + alcohol) was 104 % of control.
In the case of `O=C1C(F)=C(N2CC2)C(=O)C(N2CCOCC2)=C1N1CC1`, the T/C by setting is: (dose: 3.0 mg/kg/injection, schedule: Q01DX009 (ip), vehicle: saline) 157 % of control; (dose: 6.0 mg/kg/injection, schedule: Q01DX009 (ip), vehicle: saline) 99 % of control.
For `O=C(SCC(NSc1ccccc1[N+](=O)[O-])C(=O)O)c1ccccc1` (centres undefined), the T/C is 105 % of control (dose: 12.0 mg/kg/injection, schedule: Q01DX009 (ip), vehicle: Klucel (hydroxypropylcellulose) (HPC)); 115 % of control under setting [6]; 115 % of control under setting [7]; 110 % of control under setting [1]; 105 % of control under setting [3].
As for `CC(C)C(C=O)C(O)(C(F)(F)F)C(F)(F)Cl` (centres undefined), the T/C runs as follows: (dose: 12.5 mg/kg/injection, schedule: Q01DX009 (ip), vehicle: saline) 95 % of control; under setting [8], 100 % of control.
For `CC(=O)C1C(=O)OC2(C)C(=O)C3=COC(/C=C\C(C)=C/C(C)C)=CC3=CC12` (centres undefined), the T/C reads like this: under setting [9], 107 % of control; under setting [10], 151 % of control.
As to `[Cl][Hg][Cl].c1cnccn1`, the T/C (dose: 0.25 mg/kg/injection, schedule: Q01DX009 (ip), vehicle: saline with Tween-80) was 104 % of control; the T/C (dose: 0.5 mg/kg/injection, schedule: Q01DX009 (ip), vehicle: saline with Tween-80) is 96 % of control and 109 % of control; the T/C (dose: 2.0 mg/kg/injection, schedule: Q04DX003 (ip), vehicle: saline with Tween-80) is 95 % of control and 100 % of control; the T/C (dose: 4.0 mg/kg/injection, schedule: Q01DX009 (ip), vehicle: saline with Tween-80) was 96 % of control; the T/C (dose: 4.0 mg/kg/injection, schedule: Q04DX003 (ip), vehicle: saline with Tween-80) is 95 % of control and 96 % of control; the T/C (dose: 5.0 mg/kg/injection, schedule: Q04DX003 (ip), vehicle: saline with Tween-80) is 116 % of control. In addition, the T/C (dose: 8.0 mg/kg/injection, schedule: Q04DX003 (ip), vehicle: saline with Tween-80) is 111 % of control and 119 % of control.
On to `NC(=O)C(Br)CBr` (centres undefined), for which the T/C is 103 % of control (dose: 1.5 mg/kg/injection, schedule: Q01DX009 (ip), vehicle: saline with Tween-80); 98 % of control (dose: 3.0 mg/kg/injection, schedule: Q01DX009 (ip), vehicle: saline with Tween-80); 107 % of control and 115 % of control (dose: 12.0 mg/kg/injection, schedule: Q01DX009 (ip), vehicle: saline with Tween-80); 114 % of control under setting [6]; 105 % of control (dose: 25.0 mg/kg/injection, schedule: Q01DX009 (ip), vehicle: saline with Tween-80); 99 % of control under setting [8]. The T/C by setting is: under setting [7], 94 % of control; (dose: 50.0 mg/kg/injection, schedule: Q01DX009 (ip), vehicle: saline) 99 % of control; under setting [1], 114 % of control; under setting [11], 92 % of control.
Consider `CN(C)c1ccc(/C=C/c2ccc3ccccc3n2)c(F)c1`, for which the T/C was 90 % of control under setting [2], 95 % of control under setting [4] and 90 % of control under setting [5].
For `CC(C)(C)NC(C1=CC(C)(C)c2ccccc2C1=O)c1ccccc1` (centres undefined), the T/C runs as follows: under setting [1], 105 % of control; under setting [2], 100 % of control; under setting [3], 110 % of control; under setting [4], 95 % of control; under setting [5], 90 % of control.
With `CCOC(=O)C(C)(C)CN(CC(C)(C)C(=O)OCC)C(C)(C)C`, the T/C is 110 % of control (dose: 50.0 mg/kg/injection, schedule: Q01DX001 (ip), vehicle: saline) and 120 % of control under setting [12].
With `NC(=O)c1cc(O)c(Br)c(O)c1`, the T/C reads like this: under setting [12], 100 % of control; under setting [13], 109 % of control; under setting [14], 95 % of control.
Regarding `CCCCN1C/C(=C\c2ccc(Br)cc2)C(=O)/C(=C/c2ccc(Br)cc2)C1`, the T/C (dose: 6.25 mg/kg/injection, schedule: Q01DX005 (ip), vehicle: saline with Tween-80) was 91 % of control and the T/C (dose: 12.5 mg/kg/injection, schedule: Q01DX005 (ip), vehicle: saline with Tween-80) was 95 % of control.
Take `O=C1c2ccccc2C(=O)N1CC#CCN1C(=O)c2ccccc2C1=O`: the T/C by setting is: under setting [9], 115 % of control; under setting [10], 90 % of control; (dose: 300.0 mg/kg/injection, schedule: Q01DX009 (ip), vehicle: saline with Tween-80) 97 % of control.
For the compound `BrCc1ccc2c3c(ccc(CBr)c13)CC2`, the T/C is 113 % of control (dose: 0.92 mg/kg/injection, schedule: Q04DX003 (ip), vehicle: saline); 120 % of control (dose: 3.1 mg/kg/injection, schedule: Q04DX003 (ip), vehicle: saline); 154 % of control (dose: 17.0 mg/kg/injection, schedule: Q04DX003 (ip), vehicle: Klucel (hydroxypropylcellulose) (HPC)); 118 % of control under setting [6]; 118 % of control (dose: 75.0 mg/kg/injection, schedule: Q01DX009 (ip), vehicle: Klucel (hydroxypropylcellulose) (HPC)); 95 % of control under setting [1]. In addition, the T/C under setting [2] is 150 % of control; the T/C under setting [4] is 154 % of control; the T/C (dose: 300.0 mg/kg/injection, schedule: Q04DX003 (ip), vehicle: Klucel (hydroxypropylcellulose) (HPC)) was 87 % of control and 100 % of control; the T/C (dose: 300.0 mg/kg/injection, schedule: Q04DX003 (ip), vehicle: saline) was 118 % of control; the T/C under setting [5] was 122 % of control.
For the compound `C=CCN(C)/N=N/c1[nH]ncc1C(N)=O`, the T/C by setting is: under setting [15], 104 % of control; (dose: 50.0 mg/kg/injection, schedule: Q04DX003 (ip), vehicle: saline with Tween-80) 104 % of control; (dose: 100.0 mg/kg/injection, schedule: Q04DX003 (ip), vehicle: saline with Tween-80) 109 % of control; (dose: 200.0 mg/kg/injection, schedule: Q01DX009 (ip), vehicle: saline with Tween-80) 87 % of control; (dose: 200.0 mg/kg/injection, schedule: Q04DX003 (ip), vehicle: saline with Tween-80) 109 % of control.
Consider `O=C1c2ccccc2CC1(Cl)Cl`, for which the T/C by setting is: (dose: 100.0 mg/kg/injection, schedule: Q01DX001 (ip), vehicle: saline with Tween-80) 101 % of control; (dose: 200.0 mg/kg/injection, schedule: Q01DX001 (ip), vehicle: saline with Tween-80) 96 % of control; (dose: 400.0 mg/kg/injection, schedule: Q01DX001 (ip), vehicle: saline with Tween-80) 101 % of control.
For `C=CN1CCCC1=O`, the T/C is 100 % of control under setting [12]; 90 % of control under setting [11]; 95 % of control under setting [13]; 118 % of control (dose: 200.0 mg/kg/injection, schedule: Q01DX009 (ip), vehicle: saline); 100 % of control under setting [14]; 122 % of control (dose: 400.0 mg/kg/injection, schedule: Q01DX009 (ip), vehicle: saline).
`OC(c1cc(-c2ccc(C(F)(F)F)cc2)nc(C(F)(F)F)c1)C1CCCCN1` (centres undefined): the T/C under setting [15] was 108 % of control.
